Data from patent US10975084B2, “KDM5 inhibitors” (Merck Sharp & Dohme Corp., priority 2016, dated 2021).

molecular target: KDM5B (Homo sapiens (Human), UniProt Q9UGL1); assay: KDM5B TR-FRET Enzyme Activity Assay; format: biochemical; settings: LANCE TR-FRET; 5 nM full-length recombinant KDM5B; ten point titration 100000 nM to 5.08 nM
Summary of the method: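 Full-length KDM5B from Sf21 cells (5 nM) was preincubated 30 min with compound in HEPES pH 7.3 buffer with ascorbate and 2 μM Fe(II). Reaction with 500 nM biotinylated H3K4Me3 peptide and 500 nM α-ketoglutarate ran 60 min. Product was detected by TR-FRET (Eu-anti-H3K4Me1-2/streptavidin-Dylight 650, 665/615 ratio); IC50 came from a 4-parameter fit.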

KDM5B, sequence (Q9UGL1 whole entry): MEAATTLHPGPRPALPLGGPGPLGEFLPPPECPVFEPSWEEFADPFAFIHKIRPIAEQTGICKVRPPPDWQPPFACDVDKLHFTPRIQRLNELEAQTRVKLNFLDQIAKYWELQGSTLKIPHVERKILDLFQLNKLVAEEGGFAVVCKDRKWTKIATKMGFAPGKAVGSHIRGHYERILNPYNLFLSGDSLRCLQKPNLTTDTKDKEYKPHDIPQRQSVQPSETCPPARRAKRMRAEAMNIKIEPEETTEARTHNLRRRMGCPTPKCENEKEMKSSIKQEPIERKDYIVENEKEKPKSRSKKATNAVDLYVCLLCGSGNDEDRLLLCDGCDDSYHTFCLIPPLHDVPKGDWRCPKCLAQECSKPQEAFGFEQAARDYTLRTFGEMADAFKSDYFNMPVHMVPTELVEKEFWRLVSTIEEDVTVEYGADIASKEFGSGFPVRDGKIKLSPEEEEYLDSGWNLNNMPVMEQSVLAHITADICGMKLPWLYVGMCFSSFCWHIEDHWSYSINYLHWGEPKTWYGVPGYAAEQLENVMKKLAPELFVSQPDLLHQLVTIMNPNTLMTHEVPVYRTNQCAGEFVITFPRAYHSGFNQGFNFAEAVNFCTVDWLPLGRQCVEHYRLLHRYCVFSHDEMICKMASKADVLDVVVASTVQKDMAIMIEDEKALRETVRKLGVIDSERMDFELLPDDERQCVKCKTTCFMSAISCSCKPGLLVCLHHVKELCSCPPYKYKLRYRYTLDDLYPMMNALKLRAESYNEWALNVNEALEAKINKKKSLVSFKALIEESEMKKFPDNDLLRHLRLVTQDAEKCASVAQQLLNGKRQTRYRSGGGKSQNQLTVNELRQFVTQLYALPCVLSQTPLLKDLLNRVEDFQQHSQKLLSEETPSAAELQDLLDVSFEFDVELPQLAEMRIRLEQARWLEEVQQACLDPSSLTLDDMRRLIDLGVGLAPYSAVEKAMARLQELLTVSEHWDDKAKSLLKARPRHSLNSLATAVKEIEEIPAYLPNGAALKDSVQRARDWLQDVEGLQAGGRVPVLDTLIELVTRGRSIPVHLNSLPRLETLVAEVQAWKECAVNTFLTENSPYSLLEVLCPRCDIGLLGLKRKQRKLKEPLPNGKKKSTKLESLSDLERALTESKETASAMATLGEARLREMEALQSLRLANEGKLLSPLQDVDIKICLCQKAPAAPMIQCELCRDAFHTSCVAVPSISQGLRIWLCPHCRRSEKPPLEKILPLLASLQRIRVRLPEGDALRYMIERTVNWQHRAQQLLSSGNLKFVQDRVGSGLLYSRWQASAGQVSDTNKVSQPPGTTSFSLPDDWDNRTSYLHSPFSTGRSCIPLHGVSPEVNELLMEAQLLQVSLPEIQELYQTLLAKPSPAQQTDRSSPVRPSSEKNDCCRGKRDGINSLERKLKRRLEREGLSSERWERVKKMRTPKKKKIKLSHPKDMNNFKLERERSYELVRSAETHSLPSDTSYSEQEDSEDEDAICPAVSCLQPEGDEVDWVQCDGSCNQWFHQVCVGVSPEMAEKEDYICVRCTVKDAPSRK

IC50 [nM]	Compound
32.9	CC(C)c1c(-c2ccc(N)cc2)[nH]c2ncnn2c1=O [Example 11-99, 5-(4-aminophenyl)-6-(1-methylethyl)[1,2,4]triazolo[1,5-a]pyrimidin-7(4H)-one]
20.1	CC(C)c1c(-c2ccc(NS(C)(=O)=O)cc2)[nH]c2ncnn2c1=O [Example 11-100, N-{4-[6-(1-methylethyl)-7-oxo-4,7-dihydro[1,2,4]triazolo[1,5-a]pyrimidin-5-yl]phenyl}methanesulfonamide]
36.9	CC(C)c1c(-c2ccc(N(C)C)cc2)[nH]c2ncnn2c1=O [Example 11-103, 5-[4-(dimethylamino)phenyl]-6-(1-methylethyl)[1,2,4]triazolo[1,5-a]pyrimidin-7(4H)-one]
43.8	CNc1ccc(-c2[nH]c3ncnn3c(=O)c2C(C)C)cc1 [Example 11-104, 5-[4-(methylamino)phenyl]-6-(1-methylethyl)[1,2,4]triazolo[1,5-a]pyrimidin-7(4H)-one]
5.08	CC(C)c1c(-c2cnn(C(C)(C)CO)c2)[nH]c2ncnn2c1=O [Example 11-107, 5-[1-(2-hydroxy-1,1-dimethylethyl)-1H-pyrazol-4-yl]-6-(1-methylethyl)[1,2,4]triazolo[1,5-a]pyrimidin-7(4H)-one]
11.7	CC(C)c1c(-c2cnn(CCO)c2)[nH]c2ncnn2c1=O [Example 11-111, 5-[1-(2-hydroxyethyl)-1H-pyrazol-4-yl]-6-(1-methylethyl)[1,2,4]triazolo[1,5-a]pyrimidin-7(4H)-one]
17.3	CC(C)c1c(-c2cnc(-c3ccc(F)cc3)o2)[nH]c2ncnn2c1=O [Example 11-113, 5-[2-(4-fluorophenyl)-1,3-oxazol-5-yl]-6-(1-methylethyl)[1,2,4]triazolo[1,5-a]pyrimidin-7(4H)-one]
552	Cc1ccc(-c2[nH]c3ncnn3c(=O)c2C(C)C)o1 [Example 11-117, 6-(1-methylethyl)-5-(5-methylfuran-2-yl)[1,2,4]triazolo[1,5-a]pyrimidin-7(4H)-one]
27.5	CC(C)c1c(-c2ccc(N)c(F)c2)[nH]c2ncnn2c1=O [Example 11-119, 5-(4-amino-3-fluorophenyl)-6-(1-methylethyl)[1,2,4]triazolo[1,5-a]pyrimidin-7(4H)-one]
17	CC(C)c1c(-c2ccnc(C(F)(F)F)c2)[nH]c2ncnn2c1=O [Example 11-120, 6-(1-methylethyl)-5-[2-(trifluoromethyl)pyridin-4-yl][1,2,4]triazolo[1,5-a]pyrimidin-7(4H)-one]
43.5	CC(C)c1c(-c2cncc(C(C)(C)O)c2)[nH]c2ncnn2c1=O [Example 11-121, 5-[5-(1-hydroxy-1-methylethyl)pyridin-3-yl]-6-(1-methylethyl)[1,2,4]triazolo[1,5-a]pyrimidin-7(4H)-one]
13.3	CC(C)c1c(-c2cn[nH]c2)[nH]c2ncnn2c1=O [Example 11-122, 6-(1-methylethyl)-5-(1H-pyrazol-4-yl)[1,2,4]triazolo[1,5-a]pyrimidin-7(4H)-one]
6.93	CC(C)c1c(-c2ccc3c(c2)CC(=O)N3)[nH]c2ncnn2c1=O [Example 11-123, 6-(1-methylethyl)-5-(2-oxo-2,3-dihydro-1H-indol-5-yl)[1,2,4]triazolo[1,5-a]pyrimidin-7(4H)-one]
10.4	CC(C)c1c(-c2ccc(N3CCCCC3)nc2)[nH]c2ncnn2c1=O [Example 11-126, 6-(1-methylethyl)-5-(6-piperidin-1-ylpyridin-3-yl)[1,2,4]triazolo[1,5-a]pyrimidin-7(4H)-one]
11.6	CC(C)c1c(-c2ccc(N3CCOCC3)nc2)[nH]c2ncnn2c1=O [Example 11-127, 6-(1-methylethyl)-5-(6-morpholin-4-ylpyridin-3-yl)[1,2,4]triazolo[1,5-a]pyrimidin-7(4H)-one]
12.3	CC(C)c1c(-c2ccc(-n3cccn3)nc2)[nH]c2ncnn2c1=O [Example 11-128, 6-(1-methylethyl)-5-[6-(1H-pyrazol-1-yl)pyridin-3-yl][1,2,4]triazolo[1,5-a]pyrimidin-7(4H)-one]
66.8	CC(C)c1c(-c2ccc(F)nc2)[nH]c2ncnn2c1=O [Example 11-129, 5-(6-fluoropyridin-3-yl)-6-(1-methylethyl)[1,2,4]triazolo[1,5-a]pyrimidin-7(4H)-one]
54.5	CC(C)c1c(-c2ccc(CO)nc2)[nH]c2ncnn2c1=O [Example 11-130, 5-[6-(hydroxymethyl)pyridin-3-yl]-6-(1-methylethyl)[1,2,4]triazolo[1,5-a]pyrimidin-7(4H)-one]
48.7	CC(C)c1c(-c2ccc(C#N)nc2)[nH]c2ncnn2c1=O [Example 11-131, 5-[6-(1-methylethyl)-7-oxo-4,7-dihydro[1,2,4]triazolo[1,5-a]pyrimidin-5-yl]pyridine-2-carbonitrile]
41.7	CC(C)c1c(-c2ccc(C(F)(F)F)nc2)[nH]c2ncnn2c1=O [Example 11-132, 6-(1-methylethyl)-5-[6-(trifluoromethyl)pyridin-3-yl][1,2,4]triazolo[1,5-a]pyrimidin-7(4H)-one]
44.4	CC(C)c1c(-c2ccc(C3CC3)nc2)[nH]c2ncnn2c1=O [Example 11-133, 5-(6-cyclopropylpyridin-3-yl)-6-(1-methylethyl)[1,2,4]triazolo[1,5-a]pyrimidin-7(4H)-one]

The remaining lines, values behind:

Compound	IC50 [nM]
CC(C)c1c(-c2ccc3c(c2)CCC(=O)N3)[nH]c2ncnn2c1=O [Example 11-101, 6-[6-(1-methylethyl)-7-oxo-4,7-dihydro[1,2,4]triazolo[1,5-a]pyrimidin-5-yl]-3,4-dihydroquinolin-2(1H)-one]	7.57
CC(C)c1c(-c2ccc3c(c2)OCC(=O)N3)[nH]c2ncnn2c1=O [Example 11-102, 7-[6-(1-methylethyl)-7-oxo-4,7-dihydro[1,2,4]triazolo[1,5-a]pyrimidin-5-yl]-2H-1,4-benzoxazin-3(4H)-one]	17.8
CC(C)c1c(-c2ccc3c(c2)OCCN3C)[nH]c2ncnn2c1=O [Example 11-105, 5-(4-methyl-3,4-dihydro-2H-1,4-benzoxazin-7-yl)-6-(1-methylethyl)[1,2,4]triazolo[1,5-a]pyrimidin-7(4H)-one]	34.2
CC(C)c1c(-c2ccc(N3CCN(C)CC3)cc2)[nH]c2ncnn2c1=O [Example 11-106, 6-(1-methylethyl)-5-[4-(4-methylpiperazin-1-yl)phenyl][1,2,4]triazolo[1,5-a]pyrimidin-7(4H)-one]	16.6
CC(C)c1c(-c2ccc(CN3CCOCC3)s2)[nH]c2ncnn2c1=O [Example 11-108, 6-(1-methylethyl)-5-[5-(morpholin-4-ylmethyl)thiophen-2-yl][1,2,4]triazolo[1,5-a]pyrimidin-7(4H)-one]	5.08
CC(C)c1c(-c2cnn(C3CCC3)c2)[nH]c2ncnn2c1=O [Example 11-109, 5-(1-cyclobutyl-1H-pyrazol-4-yl)-6-(1-methylethyl)[1,2,4]triazolo[1,5-a]pyrimidin-7(4H)-one]	5.08
CC(C)c1c(-c2cnn(Cc3cccs3)c2)[nH]c2ncnn2c1=O [Example 11-110, 6-(1-methylethyl)-5-[1-(thiophen-2-ylmethyl)-1H-pyrazol-4-yl][1,2,4]triazolo[1,5-a]pyrimidin-7(4H)-one]	6.7
CC(C)c1c(-c2cnn3c2CCC3)[nH]c2ncnn2c1=O [Example 11-112, 5-(5,6-dihydro-4H-pyrrolo[1,2-b]pyrazol-3-yl)-6-(1-methylethyl)[1,2,4]triazolo[1,5-a]pyrimidin-7(4H)-one]	51.2
Cc1c(-c2[nH]c3ncnn3c(=O)c2C(C)C)cnn1-c1ccccc1 [Example 11-114, 6-(1-methylethyl)-5-(5-methyl-1-phenyl-1H-pyrazol-4-yl)[1,2,4]triazolo[1,5-a]pyrimidin-7(4H)-one]	337
Cc1csc(-c2[nH]c3ncnn3c(=O)c2C(C)C)c1 [Example 11-115, 6-(1-methylethyl)-5-(4-methylthiophen-2-yl)[1,2,4]triazolo[1,5-a]pyrimidin-7(4H)-one]	122
Cc1nc(-c2ccccc2)sc1-c1[nH]c2ncnn2c(=O)c1C(C)C [Example 11-116, 6-(1-methylethyl)-5-(4-methyl-2-phenyl-1,3-thiazol-5-yl)[1,2,4]triazolo[1,5-a]pyrimidin-7(4H)-one]	444
CC(C)c1c(-c2ccc(N3CCNCC3)cc2)[nH]c2ncnn2c1=O [Example 11-118, 6-(1-methylethyl)-5-(4-piperazin-1-ylphenyl)[1,2,4]triazolo[1,5-a]pyrimidin-7(4H)-one]	9.79
CC(C)c1c(-c2ccc(NS(=O)(=O)C3CC3)cc2)[nH]c2ncnn2c1=O [Example 11-124, N-{4-[6-(1-methylethyl)-7-oxo-4,7-dihydro[1,2,4]triazolo[1,5-a]pyrimidin-5-yl]phenyl}cyclopropanesulfonamide]	8.76
CC(C)c1c(-c2cnn(C3CCCCO3)c2)[nH]c2ncnn2c1=O (centres unmarked) [Example 11-125, 6-(1-methylethyl)-5-[1-(tetrahydro-2H-pyran-2-yl)-1H-pyrazol-4-yl][1,2,4]triazolo[1,5-a]pyrimidin-7(4H)-one]	7.36
CC(C)c1c(-c2ccn(C(C)(C)C)c2)[nH]c2ncnn2c1=O [Example 11-134, 5-(1-tert-butyl-1H-pyrrol-3-yl)-6-(1-methylethyl)[1,2,4]triazolo[1,5-a]pyrimidin-7(4H)-one]	5.08
CC(C)c1c(-c2cc(C(C)(C)C)n[nH]2)[nH]c2ncnn2c1=O [Example 11-135, 5-(3-tert-butyl-1H-pyrazol-5-yl)-6-(1-methylethyl)[1,2,4]triazolo[1,5-a]pyrimidin-7(4H)-one]	61
CC(C)c1c(-c2csc(-c3ccccc3)n2)[nH]c2ncnn2c1=O [Example 11-136, 6-(1-methylethyl)-5-(2-phenyl-1,3-thiazol-4-yl)[1,2,4]triazolo[1,5-a]pyrimidin-7(4H)-one]	469
